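Five compound concentrations were applied to cells in 96-well plates for 48 hours; endpoints were derived by simple linear interpolation of the resulting dose-response curve. GI50 = concentration required for 50% inhibition of growth. TGI marks complete inhibition of growth.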
Experiments:
Assay in all cases: NCI-60 cell line screen, 48 h
[1] = test system: MDA-MB-435
[2] = test system: A498 renal
[3] = test system: MCF7 breast
[4] = test system: COLO 205 colon
[5] = test system: ACHN renal
[6] = test system: OVCAR-8 ovarian
[7] = test system: NCI-H522 lung
[8] = test system: SNB-75 CNS
[9] = test system: SK-MEL-2 melanoma
[10] = test system: 786-0 renal

| Structure (SMILES) | GI50 [1] [µM] | TGI [1] [µM] | GI50 [2] [µM] | TGI [2] [µM] | GI50 [3] [µM] | TGI [3] [µM] | GI50 [4] [µM] | TGI [4] [µM] | GI50 [5] [µM] | TGI [5] [µM] | GI50 [6] [µM] | TGI [6] [µM] | GI50 [7] [µM] | TGI [7] [µM] | GI50 [8] [µM] | TGI [8] [µM] | GI50 [9] [µM] | TGI [9] [µM] | GI50 [10] [µM] | TGI [10] [µM] |
| --- | --- | --- | --- | --- | --- | --- | --- | --- | --- | --- | --- | --- | --- | --- | --- | --- | --- | --- | --- | --- |
| CCC[CH2][Sn]1([CH2]CCC)[O]C(=O)c2ccc(N)cc2[O]1 | 1.58 | 3.08 | 0.278 | 0.763 | 0.152 | 0.738 | 0.594 | 1.98 | 0.655 | 1.92 | 0.909 | 2.49 | 0.048 | 0.179 | 0.116 | 1.84 | 0.141 | 0.913 | 0.41 | 1.61 |
| COc1ccc(NC(=O)n2nc(/C=C\c3ccc(O)c(OC)c3)cc2/C=C\c2ccc(O)c(OC)c2)cc1 | 1.25 | 4.68 | 17.2 | 56.4 | 3.03 | 17 | 16.2 | 44.3 | 4.18 | > 100 | 5.32 | 59.9 | 1.76 | 12.7 | 2.35 | 16.3 | 3.23 | 18.1 | 4 | 24.3 |
| CCN(CC)CCOc1c(OC)c(Br)cc2c(C)c(C(=O)OC)oc12 | 1.03 | 2.62 | 7.39 | 14.6 | 1.63 | 5.74 | 0.925 | 3.68 | 0.899 | 2.08 | 2.13 | 7.88 | 1.32 | 11.9 |  |  | 3.17 | 50 | 1.71 | 6.04 |
| COc1nc(C)cc2c(=O)n(-c3ccccc3)n(CC(O)CN3CCN(c4ccc(Cl)cc4)CC3)c(=O)c12 (stereo not given) | > 50 | > 50 | > 50 | > 50 | 46.1 | > 50 | > 50 | > 50 | 43.3 | > 50 |  |  | 25.8 | > 50 | 10.1 | 27.8 | 43.1 | > 50 | 25.8 | > 50 |
| COC(=O)c1ccc(CN2C(=O)C(Cl)=C(Nc3ccc(OC)c(Cl)c3)C2=O)cc1 | 47.3 | > 50 | > 50 | > 50 | 12.6 | > 50 | 17 | > 50 | 8.44 | 18.4 | 23.8 | > 50 | 3.84 | 21.5 |  |  | 20.5 | > 50 | 36.2 | > 50 |
| CSc1nsc(S/C=C\C(=O)c2ccc(C)cc2)n1 | 19.2 | 45.6 | 0.0153 | 0.169 |  | 35.4 | 25.5 | > 63.7 | 17.6 | 31.8 | 22.5 | 57.5 | 12.2 | > 59.5 |  |  | 35.7 | > 100 | 14.8 | 28.9 |
| CCCCNC(=O)Oc1ccc(/C(=C(/CC)Cc2ccccc2)c2ccc(OCCN3CCCCCC3)cc2)cc1 | 17.2 | 34.3 |  |  | 6.32 | 59.6 | 20.6 | 39.7 | 18.6 | 41.6 | 19.1 | 36.6 | 20 | 43.8 | > 100 | > 100 | 71.9 | > 100 | 16.2 | 30 |
| COC(=O)C(=O)C(C(=O)C(N)=O)c1nc2ccc(C(=O)c3ccccc3)cc2[nH]c1=O (stereo not given) |  | > 100 |  | > 100 |  | > 100 |  |  |  | > 100 |  | > 100 |  | > 100 |  | > 100 |  | > 100 |  | > 100 |
| CN1c2ccccc2S(=O)(=O)n2c(CCc3ccccc3)nnc21 |  | > 100 |  | > 100 |  | > 100 |  | > 100 |  | > 100 |  | > 100 |  | > 100 |  |  |  | > 100 |  | > 100 |
| COc1cc(/C=C2\CC3C4CC=C5C[C@@H](O)CC[C@]5(C)C4CC[C@]3(C)C2=O)ccc1OCCCn1ccnc1 (stereo not given in full) | 16.8 | 34 | 25.5 | 44.2 | 18.8 | 37.7 | 26.4 | > 100 | 11.2 | 24.7 | 17.1 | 47.5 | 17.1 | 37.3 |  |  |  |  | 17.3 | 31.3 |
| NNS(=O)(=O)c1cc(C(=O)O)cc(C(=O)O)c1 |  | > 100 |  | > 100 |  | > 100 |  | > 100 |  | > 100 |  | > 100 |  | > 100 |  |  |  | > 100 |  | > 100 |
| CCCCN(CC)c1ncnc2ccc(Br)cc12 | 16 | 34.4 | 10.2 | 23.6 | 24.6 | 75.2 | 20.4 | 63.7 | 14.5 | 40.3 | 14 | 34.2 | 21 | > 100 |  |  | 29.5 | > 100 | 18.9 | 39.7 |
